# Assay results reported in patent US20170290844A1, “Methods of Treatment” (GlaxoSmithKline Intellectual Property Development Limited, priority 2014, published 2017).
# Key:
# [1] = tested on: COPD bronchial epithelial cells infected with HRV16; assay: Genome-wide transcriptional analysis by microarray of COPD BECs infected with HRV16; type: cell-based, human; conditions: 72 h HRV16 infection
# From the text: (§1) Air-liquid interface (ALI) cultured human bronchial epithelial cells (BECs) from chronic obstructive pulmonary disease (COPD) donors were either bought fully differentiated (Epithelix Sarl, Cat. No. EP10MD) or cultured in-house using the Pneumocult method (StemCell Technologies, Cat. No. 05001), in a 24-well format. Primary cells for in-house ALI cultures were obtained from Epithelix Sarl, Cat. No. EP18AB.
# (§2) Prior to infection, ALI cells were washed twice in warm PBS (with Ca2^+/Mg2^+). Subsequently, human rhinovirus 16 was applied at multiplicity of infection (MOI) of 1 or 5 in a total volume of 50 μl culture medium. The virus was allowed to attach for 1h at room temperature with gentle agitation. Consequently, the virus was washed off with warm PBS (with Ca2^+/Mg2^+) and cells were further cultured at 37° C. for the indicated amount of time either with or without the addition of a rsecretase inhibitor CompA (S)-2-[2-(3,5-difluorophenyl)-acetylamino]-N—((S)-1-methyl-2-oxo-5-phenyl-2,3-dihydro-1H-benzo[e][1,4]diazepin-3-yl)-propionamide, (Calbiochem Cat. No. 565790).
# (§3) Ribonucleic acid (RNA) from ALI cultured COPD BECs was prepared by lysing the cells in RLT buffer supplied with Promega Total RNA Isolation System (Promega, Cat. No. Z3505). RNA was then extracted by using the manufacturer's protocol with automation. Murine total lung RNA was isolated by first homogenisation of the lung in 1 ml TRIZOL™ reagent, then subsequent phase separation with 1-bromo-3-chloropropane (BCP) (MRC, Cat. No. BP151). The aqueous phase was then mixed with 70% ethanol and final RNA extraction was achieved using the Promega Total RNA Isolation System with automation. […] Amplification of specific targets was performed by quantitative real-time polymerase chain reaction (qRT-PCR) using the TaqMan® gene expression system (Applied Biosystems Cat. No. 4369510) and ready to use TaqMan® primer/probes (see Table 1). […]
# [2] = tested on: COPD BECs infected with HRV16; assay: Gene expression by real-time PCR in ALI cultures of COPD BECs infected with HRV16; type: cell-based, human; conditions: 24 h post HRV16 infection
# From the text: as §1
# (§4) Prior to infection, ALI cells were washed twice in warm PBS (with Ca2^+/Mg2^+). Subsequently, human rhinovirus 16 was applied at multiplicity of infection (MOI) of 1 or 5 in a total volume of 50 μl culture medium. The virus was allowed to attach for 1h at room temperature with gentle agitation. […]
# Ribonucleic acid (RNA) from ALI cultured COPD BECs was prepared by lysing the cells in RLT buffer supplied with Promega Total RNA Isolation System (Promega, Cat. No. Z3505). […] Amplification of specific targets was performed by quantitative real-time polymerase chain reaction (qRT-PCR) using the TaqMan® gene expression system (Applied Biosystems Cat. No. 4369510) and ready to use TaqMan® primer/probes (see Table 1). […]
# [3] = tested on: COPD BECs infected with HRV16; assay: Mucociliary responses of BECs infected with HRV16 (real-time PCR, AB/PAS staining, β-tubulin IV immunofluorescence); type: cell-based, human
# From the text: as §1, §2
# Ribonucleic acid (RNA) from ALI cultured COPD BECs was prepared by lysing the cells in RLT buffer supplied with Promega Total RNA Isolation System (Promega, Cat. No. Z3505). RNA was then extracted by using the manufacturer's protocol with automation. Murine total lung RNA was isolated by first homogenisation of the lung in 1 ml TRIZOL™ reagent, then subsequent phase separation with 1-bromo-3-chloropropane (BCP) (MRC, Cat. No. BP151). The aqueous phase was then mixed with 70% ethanol and final RNA extraction was achieved using the Promega Total RNA Isolation System with automation. Complementary deoxyribonucleic acid (cDNA) was synthesised by reverse transcription using MultiScribe™ Reverse Transcriptase and random primers according to the manufacturer's protocol (Applied Biosystems, Cat. No. 4368814). Amplification of specific targets was performed by quantitative real-time polymerase chain reaction (qRT-PCR) using the TaqMan® gene expression system (Applied Biosystems Cat. No. 4369510) and ready to use TaqMan® primer/probes (see Table 1). Global gene expression analysis was performed by microarray using the Human Genome U133 Plus 2.0 genechip and was done either by Epistem Ltd. (Manchester, UK) or Expression Analysis, Inc. (Durham, US). Data analysis was performed using Array Studio software (OmicSoft Corporation, Cary, US) with GC-RMA normalisation algorithm. Probes with intensities less than the geometric mean of 64 were discarded. […]
# ALI cultured BECs were fixed in 4% paraformaldehyde (PFA) overnight. Mucus load was assessed by histological sections with Alcian Blue/Periodic Acid Schiff (AB/PAS) stainings and were performed by the GSK PTS histological core facility. […]
# [4] = tested on: ALI cultured COPD BECs infected with HRV16; assay: Protein secretion of immune mediators in supernatants of ALI cultured COPD BECs (MSD/ELISA); type: cell-based, human; conditions: 72 h post HRV16 infection
# From the text: as §1, §4
# Detection of secreted proteins was done on the Meso Scale Discovery (MSD®) platform according to the manufacturer's protocol. Chemokines CXCL6 and CCL5 were detected by enzyme linked immunosorbent assay (ELISA) kits both bought from R&D systems, Cat. Nos. DY333 and DRN00B, respectively. […] Analytical flow cytometry was performed using the FACSCanto II (Beckton Dickinson) and analysed using FlowJo software (Tree Star, Inc. Ashland, US).
# healthy neutrophil = assay: Neutrophil chemotaxis in response to supernatants from HRV16 infected COPD BECs; type: cell-based; conditions: supernatants of COPD BECs 72 h post HRV16 infection, versus untreated infected samples
# T-cell = T-cell chemotaxis in response to supernatants from HRV16 infected COPD BECs; type: cell-based; conditions: supernatants of COPD BECs 72 h post HRV16 infection
# [5] = tested on: female Balb/c mice following HRV1B inoculation; assay: Inflammation and mucus gene expression in lungs of mice following HRV1B inoculation; type: in vivo; conditions: 8 h post infection, 0.5 mg/kg
# Description: For in-vivo experiments, 8 weeks old female BALB/c mice were intra-nasally infected with 1×10^8 plaque forming units (PFUs) of human rhinovirus serotype 1b (HRV1b) virus in a total of 50 μl and either treated or not with a γ-secretase inhibitor CompB N2-[(2S)-2-(3,5-difluorophenyl)-2-hydroxyethanoyl]-N1-[(7S)-5-methyl-6-oxo-6,7-dihydro-5H-dibenzo[b,d]azepin-7-yl]-L-alaninamide at a concentration of 0.5 mg/kg. To assess inflammation to the lung, broncho-alveolar lavage fluid (BALF) was collected and cellular infiltrates analysed on the Sysmex cell analysis system (Milton Keynes, UK). Subsequently, whole lung was placed into 1 ml of TRIZOL™ reagent for downstream gene expression analysis.
# as §3, with “BP151).” for “BP151). The aqueous phase was then mixed with 70% ethanol and final RNA extraction was achieved using the Promega Total RNA Isolation System with automation.”
# [6] = healthy and COPD human BECs at ALI
SMILES,cilia associated genes (expression) [1],interferon response [1],upregulation of goblet cell associated genes [1],gene expression of T-cell associated chemokines [2],gene expression of neutrophilic chemokines [2],"ciliation ([3]; COPD BECs, 72 h, ciliated cell genes and β-tubulin IV staining)","mucus production ([3]; COPD BECs, 72 h, goblet cell genes and AB/PAS staining)","loss of ciliation [3, 6]","mucus secretion [3, 6]",secretion of T-cell associated chemokines [4],secretion of neutrophilic chemokines [4],neutrophil chemotaxis (healthy neutrophil),T-cell chemotaxis (T-cell),mucin gene expression (Muc5ac) in lungs [5],recruitment of neutrophils into the lungs (BAL) [5]
"C[C@H](NC(=O)Cc1cc(F)cc(F)c1)C(=O)N[C@H]1N=C(c2ccccc2)c2ccccc2N(C)C1=O [CompA, (S)-2-[2-(3,5-difluorophenyl)-acetylamino]-N—((S)-1-methyl-2-oxo-5-phenyl-2,3-dihydro-1H-benzo[e][1,4]diazepin-3-yl)-propionamide]",restores cilia associated genes,left unaltered,inhibits upregulation of goblet cell associated genes,less affected,transcriptional inhibition,restores ciliation,inhibits mucus production,prevents the loss of ciliation,reduces mucus secretion,less affected,reduced secretion,reduced,unaltered,,
"C[C@H](NC(=O)[C@@H](O)c1cc(F)cc(F)c1)C(=O)N[C@@H]1C(=O)N(C)c2ccccc2-c2ccccc21 [CompB, N2-[(2S)-2-(3,5-difluorophenyl)-2-hydroxyethanoyl]-N1-[(7S)-5-methyl-6-oxo-6,7-dihydro-5H-dibenzo[b,d]azepin-7-yl]-L-alaninamide]",,,,,,,,,,,,,,reduced,reduced
